Laboratory results from publication PMC3230400, “Peroxisome Proliferator-Activated Receptor γ Is a Target for Halogenated Analogs of Bisphenol A” (Environmental Health Perspectives, 2011).
“Also recorded” adds a separate entry of the source.

Assays:
Assay type in all cases: cell-based
[1] = target: T1, PPARγ (Homo sapiens, UniProt P37231); assay: HGELN-PPARγ stable reporter cell luciferase assay; details: HGELN-PPARγ cells; for activation of PPARγ (luciferase): relative to 100 nM rosiglitazone
T1 sequence (P37231 238-505 limits assumed): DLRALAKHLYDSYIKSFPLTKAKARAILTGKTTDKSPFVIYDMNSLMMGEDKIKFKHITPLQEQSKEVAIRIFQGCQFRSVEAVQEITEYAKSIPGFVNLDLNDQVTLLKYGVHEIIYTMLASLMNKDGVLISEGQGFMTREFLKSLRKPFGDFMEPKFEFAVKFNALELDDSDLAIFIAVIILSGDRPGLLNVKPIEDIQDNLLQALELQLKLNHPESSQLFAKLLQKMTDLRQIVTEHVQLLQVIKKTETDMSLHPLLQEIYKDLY
Experimental: (§1) Reporter cell lines and stable gene expression assay. […] Briefly, reporter cells were seeded at a density of 20,000 cells/well in 96-well white opaque tissue culture plates and maintained in phenol-red–free Dulbecco’s modiﬁed Eagle’s medium (DMEM) supplemented with 5% dextran-coated, charcoal-treated fetal calf serum. Twenty-four hours later, culture medium was replaced with DMEM containing tested compounds. We performed assays in the absence of serum to avoid ligand capture by serum proteins. Sixteen hours after exposure, we replaced media with media containing 0.3 mM luciferin. Luminescence was measured in intact living cells for 2 sec in a Microbeta Wallac luminometer (PerkinElmer).

[2] = target: T1, PPARγ; assay: Transient transactivation assay in HeLa cells, GAL4-hPPARγ; details: 10 μM TBBPA, TCBPA, MEHP
[3] = system: zebrafish PPARγ; assay: Transient transactivation assay in HeLa cells, GAL4-zebrafish PPARγ LBD; details: 10 μM TBBPA, TCBPA, MEHP, 1 μM rosiglitazone
[4] = system: 3T3L1 preadipocytes; assay: 3T3L1 preadipocyte differentiation (Oil Red O staining); details: for induction of adipogenesis (Oil Red O staining): 8-day treatment with 10 μg/mL insulin and ligand, TCBPA and TBBPA at 10 μM
Experimental: NIH3T3-L1 differentiation. Two-day postconfluent 3T3L1 preadipocytes (a gift from L. Fajas; Institut de Génétique Moléculaire, Montpellier, France) were induced to differentiate by 2-day treatment with a differentiation mixture (10 μg/mL insulin, 1 μM dexamethasone, 0.5 mM isobutylmethylxanthine) followed by 8-day treatment with 10 μg/mL insulin and PPARγ ligands. The medium was replaced every 48 hr. After differentiation, cells were stained with Oil Red O for morphological analyses, or RNA was extracted from the cells using the RNeasy RNA isolation kit (Qiagen, Courtaboeuf, France). For RNA extractions, four independent cultures were performed per condition. Reverse transcription was performed with random hexamers on 1 μg total RNA using SuperScript II reverse transcriptase (Invitrogen), and the reaction was diluted 100 times for amplification. Real-time polymerase chain reaction (PCR) quantification was then performed using SYBR Green technology (LightCycler; Roche Diagnostics, Meylan, France). Results were normalized to two housekeeping genes (18S and 36B4) and quantified using qBase (Roche Diagnostics).
Two-day postconfluent 3T3L1 cells were treated for 8 days with 10 μg/mL insulin with vehicle (0.1% DMSO) or the ligands as indicated. Rosi, rosiglitazone. (A) Entire wells imaged after Oil Red O staining. (B) Quantitative real-time PCR of PPARγ and adipocyte-specific fatty acid–binding protein AP2 expression levels in postconfluent 3T3-L1 cells treated with the ligands for 24 hr. Data were normalized to 18S or 36B4 controls and plotted as average fold induction ± SE (n = 3 per treatment).

[5] = target: T2, ERβ (Homo sapiens, UniProt Q92731); assay: HGELN-ERβ stable reporter cell luciferase assay; details: for agonistic activity toward ERβ (luciferase): HGELN-ERβ cells, relative to 10 nM E2; for ranking order of estrogenic potency, ERβ: HELN-ERβ cell line
T2 construct: expressed in transfected cells; host or cells: HGELN (HeLa-derived) cells, stably transfected
T2 sequence (Q92731 whole entry): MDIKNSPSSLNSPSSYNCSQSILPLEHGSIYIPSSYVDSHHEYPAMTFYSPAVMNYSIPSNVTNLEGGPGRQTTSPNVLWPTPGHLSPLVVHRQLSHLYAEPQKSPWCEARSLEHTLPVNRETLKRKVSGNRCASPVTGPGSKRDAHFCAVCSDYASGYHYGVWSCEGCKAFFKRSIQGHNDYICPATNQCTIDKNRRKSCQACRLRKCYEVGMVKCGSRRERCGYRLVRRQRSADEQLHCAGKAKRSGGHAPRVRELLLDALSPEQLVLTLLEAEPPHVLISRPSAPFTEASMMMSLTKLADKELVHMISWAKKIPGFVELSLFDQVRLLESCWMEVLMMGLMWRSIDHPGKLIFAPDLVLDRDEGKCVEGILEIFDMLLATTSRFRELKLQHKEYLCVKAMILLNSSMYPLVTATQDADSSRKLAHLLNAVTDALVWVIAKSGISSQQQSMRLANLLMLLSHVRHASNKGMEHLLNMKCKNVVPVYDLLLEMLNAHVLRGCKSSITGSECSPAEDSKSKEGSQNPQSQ
Experimental: as §1

[6] = system: PPARγ target genes (AP2, PPARγ) in 3T3-L1 cells; assay: Real-time PCR of PPARγ target genes in 3T3-L1 cells
Experimental: Two-day postconfluent 3T3L1 preadipocytes (a gift from L. Fajas; Institut de Génétique Moléculaire, Montpellier, France) were induced to differentiate by 2-day treatment with a differentiation mixture (10 μg/mL insulin, 1 μM dexamethasone, 0.5 mM isobutylmethylxanthine) followed by 8-day treatment with 10 μg/mL insulin and PPARγ ligands. […] After differentiation, cells were stained with Oil Red O for morphological analyses, or RNA was extracted from the cells using the RNeasy RNA isolation kit (Qiagen, Courtaboeuf, France). […] Reverse transcription was performed with random hexamers on 1 μg total RNA using SuperScript II reverse transcriptase (Invitrogen), and the reaction was diluted 100 times for amplification. Real-time polymerase chain reaction (PCR) quantification was then performed using SYBR Green technology (LightCycler; Roche Diagnostics, Meylan, France). Results were normalized to two housekeeping genes (18S and 36B4) and quantified using qBase (Roche Diagnostics).
Two-day postconfluent 3T3L1 cells were treated for 8 days with 10 μg/mL insulin with vehicle (0.1% DMSO) or the ligands as indicated. […] (B) Quantitative real-time PCR of PPARγ and adipocyte-specific fatty acid–binding protein AP2 expression levels in postconfluent 3T3-L1 cells treated with the ligands for 24 hr.

[7] = target: T3, ERα (Homo sapiens, UniProt P03372); assay: HGELN-ERα stable reporter cell luciferase assay; details: for ranking order of estrogenic potency, ERα: HELN-ERα cell line; for agonistic activity toward ERα (luciferase): HGELN-ERα cells, relative to 10 nM E2; for ERα versus ERβ selectivity: HGELN-ERα vs HGELN-ERβ cells
T3 construct: expressed in transfected cells; host or cells: HGELN (HeLa-derived) cells, stably transfected
T3 sequence (P03372 1-595): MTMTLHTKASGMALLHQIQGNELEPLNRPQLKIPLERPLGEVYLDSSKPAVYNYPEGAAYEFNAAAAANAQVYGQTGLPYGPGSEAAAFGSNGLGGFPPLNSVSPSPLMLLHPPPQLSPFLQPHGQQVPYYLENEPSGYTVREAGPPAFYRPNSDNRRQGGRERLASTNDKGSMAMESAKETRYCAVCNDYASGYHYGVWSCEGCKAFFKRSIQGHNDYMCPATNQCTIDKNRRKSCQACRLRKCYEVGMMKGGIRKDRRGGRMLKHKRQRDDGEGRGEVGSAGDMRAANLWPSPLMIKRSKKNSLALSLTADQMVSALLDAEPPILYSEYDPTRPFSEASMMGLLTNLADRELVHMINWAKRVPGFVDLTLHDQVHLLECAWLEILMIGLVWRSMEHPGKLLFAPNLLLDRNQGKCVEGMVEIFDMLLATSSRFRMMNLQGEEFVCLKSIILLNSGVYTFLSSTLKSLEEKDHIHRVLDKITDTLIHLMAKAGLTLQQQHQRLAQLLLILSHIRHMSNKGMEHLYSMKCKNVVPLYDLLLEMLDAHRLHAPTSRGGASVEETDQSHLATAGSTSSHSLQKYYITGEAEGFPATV
Experimental: as §1

agonistic activity toward ERβ (luciferase) [5]	ranking of ability to activate PPARγ [1]	ranking order of estrogenic potency, ERα [7]	agonistic activity toward ERα (luciferase) [7]	ranking order of estrogenic potency, ERβ [5]	Molecule	activation of PPARγ (luciferase) [1]	induction of adipogenesis (Oil Red O staining) [4]	further results
–	TBBPA = triBBPA > diBBPA >>> monoBBPA	monoBBPA > diBBPA > triBBPA	highest transactivation efficiency	monoBBPA > diBBPA > triBBPA	3,3´-dibromoBPA [diBBPA]	–	–	ERα versus ERβ selectivity [7]: slight ERα selectivity
–	TBBPA = triBBPA > diBBPA >>> monoBBPA	monoBBPA > diBBPA > triBBPA	–	monoBBPA > diBBPA > triBBPA	3,3´,5-tribromoBPA [triBBPA]	highest potency	–	–
–	–	–	–	–	CN(CCOc1ccc(CC2SC(=O)NC2=O)cc1)c1ccccn1 (centres unmarked) [rosiglitazone, reference compound]	–	strongly induced adipogenesis	activation of zebrafish PPARγ (transient transfection) [3]: completely inactive
little effect	–	–	–	no estrogenic activity at all	CC(C)(c1cc(Br)c(O)c(Br)c1)c1cc(Br)c(O)c(Br)c1 [TBBPA, 2,2-bis(3,5-dibromo-4-hydroxyphenyl)propane]	–	induced adipogenesis	adipogenic action upon co-treatment with PPARγ antagonist CD5477 ([4]; co-treatment with CD5477): inhibited the adipogenic action
–	TBBPA = triBBPA > diBBPA >>> monoBBPA	monoBBPA > diBBPA > triBBPA	highest transactivation efficiency	monoBBPA > diBBPA > triBBPA	3-MonobromoBPA [monoBBPA]	–	–	ERα versus ERβ selectivity [7]: slight ERα selectivity

Molecule	agonistic activity toward ERβ (luciferase) [5]	ranking of ability to activate PPARγ [1]	ranking order of estrogenic potency, ERα [7]	agonistic activity toward ERα (luciferase) [7]	ranking order of estrogenic potency, ERβ [5]	activation of PPARγ (luciferase) [1]	induction of adipogenesis (Oil Red O staining) [4]	further results
CC(C)(c1cc(Cl)c(O)c(Cl)c1)c1cc(Cl)c(O)c(Cl)c1 [TCBPA, 2,2-bis(3,5-dichloro-4-hydroxyphenyl)propane]	partially activated	–	–	–	–	partially activating PPARγ	induced adipogenesis	activation of human PPARγ (transient transfection) [2]: activators; activation of zebrafish PPARγ (transient transfection) [3]: activated; AP2 expression level compared with rosiglitazone [6]: much lesser extent
CC(C)(c1ccc(O)cc1)c1ccc(O)cc1 [BPA, bisphenol A]	almost full agonistic activity	–	–	almost full agonistic activity; also recorded: highest transactivation efficiency	–	failed to activate; also recorded: absence of significant interaction	–	–
